Measurements: patent US20240165148A1, “HYALURONIC ACID-CONJUGATED DIPALMITOYL PHOSPHATIDYL ETHANOLAMINE IN COMBINATION WITH NON-STEROIDAL ANTI-INFLAMMATORY DRUGS (NSAIDS) FOR TREATING OR ALLEVIATING INFLAMMATORY DISEASES” (priority 2021, published 2024)
Entries after “also recorded” stand apart in the source; their conditions may differ.

Columns and labels:
[1] = system: LTB4 production in the hippocampus (HC); settings: LPS-stimulated rats, Student's T test
Description: (§1) Male Sprague-Dawley rats were purchased from Harlan laboratories, fed ad libitum and housed in accordance with animal facility guidelines. Animals were assigned 10 each to the 7 groups, in accordance with the treatment protocol described below. Body temperature (BT) was measured at all treatment time-points, to evaluate the effects of drug treatment on the LPS-induced changes in BT. On the second day of the experiment, 2 hours post- drug treatment, rats were sacrificed by decapitation after a short anesthesia (with a mixture of isoflurane-oxygen in air inhalation), blood was collected and brain regions (hypothalamus and hippocampus) immediately extracted. Brain regions were manually homogenized in a PBS solution containing a cocktail of phosphatase/protease inhibitors. Homogenates were centrifuged at 4° C., 10,000 rpm, for 10 minutes. Supernatants were collected and stored at −80° C. for further determination.
(§2) Leukotriene B4 (LTB4) levels were determined in the hypothalamus and hippocampus samples, using commercially available ELISA kits.
(§3) Seven groups of rats, ten rats in each group, were administered treatment intra-peritoneally, according to the following treatment regimens: • 1)- Control group- Animals were treated with vehicle control (NaCl 0.9% 0.2 ml); • 2) LPS: Animals were treated with vehicle control at 6 and 2 hours prior to LPS (1 mg/kg) injection. […]

[2] = system: LTB4 production in the hypothalamus (HT); settings: LPS-stimulated rats, Student's T test
Description: as §1, §2, §3

Di-palmitoyl (C-16) phosphatidyl ethanolamine (DPPE) conjugated to hyaluronic acid (Hy) [HyDPPE]
Effect on LPS-induced LTB4 production (in words) [1]: counteracted the LPS-induced production of LTB4; also recorded: reversed the increased LTB4 production
Effect on LPS-induced LTB4 production (in words) [2]: counteracted the LPS-induced production of LTB4
